Columns and labels:
HTRA2 = details: immunoprecipitation experiments; cited from earlier work
Text: The mitochondrial serine protease HTRA2 has many versatile biological functions ranging from being an important regulator of apoptosis to being an essential component for neuronal cell survival and mitochondrial homeostasis. Loss of HTRA2 protease function is known to cause neurodegeneration, whereas overactivation of its proteolytic function is associated with cell death and inflammation.

[1] = system: retinal ganglion cells (RGCs); details: cited from earlier work
Text: However, in a recent study of our group we identified the protein HTRA2 as a high-affinity interaction partner of the synthetic peptide […] [16]. Thereby, this synthetic peptide encodes a complementary-determining region 1 (CDR1) of polyclonal antibody molecules, which was originally identified as a potential biomarker candidate in primary-open angle glaucoma (POAG) patients.

[2] = system: HTRA2-specific interaction partners FNLA, NCKAP1, POTEE, PSMC1, SEC13; assay: Targeted MS analysis (accurate inclusion mass screening, AIMS) of HTRA2 Co-IP eluates; parameters: species or system house swine (Sus scrofa); details: repeated Co-IP, n = 3 biological replicates, Figure S3, CDR p < 0.05, UCF-101 p > 0.05
Text: Thereby, the peptides of interest were listed in the software inclusion list and the LTQ Orbitrap XL MS system only required MS/MS scans of the parent ions if the listed peptide was detected with an accurate mass and charge state. […] The selected peptides needed to be fully tryptic with a maximum of one missed cleavage, as described earlier. For this experiment, we repeated the Co-IP of the HTRA2-specific protein interaction partners ± treatments (see method Section 2.4) and subjected the respective eluate fractions to further in-solution trypsin digestion, as described elsewhere. In this case, the LTQ Orbitrap XL MS system was coupled online to an EASY-nLC 1200 system (Thermo Fisher Scientific, Rockford, IL, USA) using a PepMap C18 column system (75 µm × 500 mm; Thermo Fisher Scientific, Rockford, IL, USA). The dynamic exclusion mode was applied as follows: repeat count = 3, repeat duration = 30 s, exclusion size list = 100, exclusion time = 180 s, and the exclusion mass width ± 10 ppm. Protein identification and quantification were performed as described in Section 2.7.
For further validation of the HTRA2-specific interaction partners, we performed a targeted MS analysis via accurate inclusion mass screening (AIMS) technology. […] This time, the LC-MS system “only” recorded the unique peptide sequences of the previously identified HTRA2 interaction partners. […]

Compound | Affinity for the target protein HTRA2 (HTRA2) | Effect on retinal ganglion cells (RGCs) in an organ culture model for glaucoma [1] | Abundances of the co-enriched target proteins FNLA, NCKAP1, POTEE, PSMC1 and SEC13 compared with the HTRA2 group [2]
ASGYTFTNYGLSWVR [CDR, synthetic peptide encoding a complementary-determining region 1 (CDR1) of polyclonal antibody molecules] | high affinity | neuroprotective effects | significantly diminished
O=C1C(=Cc2ccc(-c3ccccc3[N+](=O)[O-])o2)C(=O)N(c2ccccc2)C(=S)N1c1ccccc1 [UCF-101, reference compound] |  |  | slight decrease

Source: publication PMC8427973, “Regulation of the HTRA2 Protease Activity by an Inhibitory Antibody-Derived Peptide Ligand and the Influence on HTRA2-Specific Protein Interaction Networks in Retinal Tissues” (Biomedicines, 2021)
